{"source": "patent US7071206B2", "about": "“Agents for treating neurodegenerative disorders” (Medivation, Inc., priority 1995, dated 2006)", "key": {"[1]": {"system": "patients suffering from Alzheimer's disease", "conditions": "general statement on the agent used in medicine as antiallergic; cited from earlier work"}, "[2]": {"system": "patients suffering from Alzheimer's disease", "assay": "Clinical trial of dimebon: blood and urea analysis", "assay_type": "in vivo, human", "excerpt": "By the 8th week of the treatment the amount of leukocytes was normal again."}}}
{"smiles": "Cc1ccc2c(c1)c1c(n2CCc2ccc(C)nc2)CCN(C)C1", "note": "[No. 10, 2,8-dimethyl-5-[2-(6-methyl-3-pyridyl)ethyl]-2,3,4,5-tetrahydro-1H-pyrido[4,3-b]indole]", "values": [{"measurement": "toxicity and negative side-effects", "setting": "[1]", "result": "non-toxic and does not show any negative side-effects"}, {"measurement": "amount of leukocytes", "setting": "[2]; after 4 weeks, within normal limits, p<0.05", "result": "significant reduction"}, {"measurement": "amount of leukocytes", "setting": "[2]; by the 8th week", "result": "normal again"}, {"measurement": "hematological and biochemical status", "setting": "[2]; during the course of the treatment", "result": "No pathologic changes"}]}
